Measurements: the NIST ThermoML archive (doi:10.1016/j.jct.2006.05.008)

Experiment: molar heat capacity at constant pressure
Conditions: 101.33 kPa, Small (less than 1 g) adiabatic calorimetry

CCCCn1cc[n+](C)c1.[Br-] [1-butyl-3-methylimidazolium bromide]
Conditions | molar heat capacity at constant pressure [J/K/mol]
122.75 K, Glass | 139.07
123.63 K, Crystal | 131.11
124.78 K, Glass | 140.32
125.66 K, Crystal | 132.08
126.82 K, Glass | 141.79
127.7 K, Crystal | 133.1
128.85 K, Glass | 143.22
129.73 K, Crystal | 134.32
130 K, Crystal | 134.3
130.89 K, Glass | 144.53
131.77 K, Crystal | 135.36
132.93 K, Glass | 145.61
133.82 K, Crystal | 136.37
134.98 K, Glass | 147.16
135.86 K, Crystal | 137.63
137.02 K, Glass | 148.47
137.9 K, Crystal | 138.69
139.07 K, Glass | 149.68
139.95 K, Crystal | 139.77
140 K, Crystal | 139.7
141.11 K, Glass | 150.96
142 K, Crystal | 140.95
143.16 K, Glass | 152.33
144.05 K, Crystal | 142.17
145.21 K, Glass | 153.64
146.11 K, Crystal | 143.29
147.27 K, Glass | 154.99
148.17 K, Crystal | 144.04
149.33 K, Glass | 156.22
150 K, Crystal | 145.1
150.23 K, Crystal | 145.16
151.38 K, Glass | 157.56
152.28 K, Crystal | 146.48
153.44 K, Glass | 158.85
154.34 K, Crystal | 147.77
155.5 K, Glass | 160.15
156.4 K, Crystal | 148.83
157.55 K, Glass | 161.46
158.47 K, Crystal | 149.86
159.61 K, Glass | 162.88
160 K, Crystal | 150.5
160.53 K, Crystal | 151.03
161.68 K, Glass | 164.21
162.59 K, Crystal | 152.18
163.74 K, Glass | 165.38
164.66 K, Crystal | 153.33
165.8 K, Glass | 166.7
166.73 K, Crystal | 154.42
167.87 K, Glass | 168.08
168.79 K, Crystal | 155.67
169.93 K, Glass | 169.45
170 K, Crystal | 156
170.86 K, Crystal | 156.71
172 K, Glass | 170.75
172.93 K, Crystal | 157.83
174.07 K, Glass | 172.09
175 K, Crystal | 159
176.14 K, Glass | 173.39
177.07 K, Crystal | 160.17
178.21 K, Glass | 174.81
179.15 K, Crystal | 161.41
180 K, Crystal | 161.6
180.29 K, Glass | 176.19
181.23 K, Crystal | 162.53
182.37 K, Glass | 177.61
183.3 K, Crystal | 163.73
184.44 K, Glass | 178.88
185.38 K, Crystal | 164.89
186.51 K, Glass | 180.34
187.45 K, Crystal | 166.26
188.59 K, Glass | 181.72
189.53 K, Crystal | 167.35
190 K, Crystal | 167.4
190.66 K, Glass | 183.15
191.61 K, Crystal | 168.45
192.74 K, Glass | 184.62
193.69 K, Crystal | 169.62
194.82 K, Glass | 186.01
195.77 K, Crystal | 170.97
196.9 K, Glass | 187.63
197.85 K, Crystal | 172.33
198.98 K, Glass | 189.28
199.93 K, Crystal | 173.55
200 K, Crystal | 173.4
201.07 K, Glass | 191
202.01 K, Crystal | 174.87
203.15 K, Glass | 192.74
204.09 K, Crystal | 176.17
205.24 K, Glass | 194.6
206.18 K, Crystal | 177.52
207.34 K, Glass | 196.57
208.26 K, Crystal | 178.87
209.44 K, Glass | 199.14
